Tests used:
[1] = test system: cofilin, LIMK in resting CD4 T cells; details: cited from earlier work; for effect on cofilin activation / phosphorylation: resting CD4 T cells
HIV-1 = details: cited from earlier work
A3R5.7 CD4 T cells = assay: CXCL12-induced T cell chemotaxis (transwell) assay; type: cell-based, human; details: CXCL12 40 ng/ml
Method: FIG. 3. Quantification of effects of cofilin hyperactivation on T cell migration. (A) A3R5.7 T cells were treated with different dosages of R10015 for one hour. Phospho-cofilin and total cofilin were quantified by Western blot. (B) The relative ratio of p-cofilin/cofilin in response to R10015 treatment was plotted (n=4 independent experiments). (C) R10015 inhibits cofilin phosphorylation and T cell chemotaxis in response to CXCL12. A3R5.7 cells were treated with different dosages of R10015 for one hour, and then added to the upper chamber of a 24-well transwell plate. The lower chamber was filled with CXCL12 (40 ng/ml), and cell migration to the lower chamber was quantified (n=3 independent experiments). […]
(§1) T cell migration is controlled by cycles of cofilin phosphorylation and dephosphorylation, which are regulated by the LIM-domain kinase (LIMK) through serine 3 phosphorylation (27, 54). To quantify the direct effect of cofilin hyperactivation on T cell migration, we used a recently discovered LIMK inhibitor, R10015 (55), to block cofilin phosphorylation in A3R5.7 CD4 T cells. […]
A half million cells were resuspended into 100 μl RPMI-1640 medium and then added to the upper chamber of a 24-well transwell plate (Corning, Corning, NY). […] The plate was incubated at 37° C. for 2 hours, and then the upper chamber was removed and cells in the lower chamber were counted. […]

[2] = test system: cofilin phosphorylation in A3R5.7 CD4 T cells; assay: Western blot for p-cofilin and cofilin after R10015 treatment; type: cell-based, human
Method: FIG. 3. Quantification of effects of cofilin hyperactivation on T cell migration. (A) A3R5.7 T cells were treated with different dosages of R10015 for one hour. Phospho-cofilin and total cofilin were quantified by Western blot. (B) The relative ratio of p-cofilin/cofilin in response to R10015 treatment was plotted (n=4 independent experiments). (C) R10015 inhibits cofilin phosphorylation and T cell chemotaxis in response to CXCL12. A3R5.7 cells were treated with different dosages of R10015 for one hour, and then added to the upper chamber of a 24-well transwell plate. The lower chamber was filled with CXCL12 (40 ng/ml), and cell migration to the lower chamber was quantified (n=3 independent experiments). (D) The linear correlation between T cell migration and levels of cofilin phosphorylation. The X-axis is the relative ratio of p-cofilin/cofilin derived from (B); the Y-axis is the number of migrating cells derived from (C).
as §1, with “cells. We then performed CXCL12-induced T cell chemotaxis in the presence of cofilin hyperactivation.” for “cells.”

Row | Compound | effect on cofilin activation / phosphorylation [1] | effect on HIV latent infection of resting CD4 T cells (HIV-1) | effect on LIMK ([1]; transient treatment of resting CD4 T cells) | decrease in cell migration (A3R5.7 CD4 T cells; A3R5.7 CD4 T cells, at 50% reduction in cofilin phosphorylation) | T cell chemotaxis in response to CXCL12 (A3R5.7 CD4 T cells; A3R5.7 cells treated one hour) | inhibition of cofilin phosphorylation ([2]; A3R5.7 CD4 T cells, different dosages of R10015 for one hour, ratio p-cofilin/cofilin) | cofilin phosphorylation reduced to ([2]; at around 15 M of R10015, A3R5.7 cells, one hour)
1 | CN[C@@H]1C[C@H]2O[C@@](C)([C@@H]1OC)n1c3ccccc3c3c4c(c5c6ccccc6n2c5c31)C(=O)NC4 [staurosporine] | induce gradual cofilin activation | enhances HIV latent infection | – | – | – | – | –
2 | C=C1[C@@H](O)[C@@H]2O[C@]3(CC[C@H](/C=C/[C@@H](C)[C@@H]4CC(C)=C[C@@]5(O[C@H](C[C@@](C)(O)C(=O)O)CC[C@H]5O)O4)O3)CC[C@H]2O[C@@H]1[C@@H](O)C[C@H](C)[C@H]1O[C@@]2(CCCCO2)CC[C@H]1C [okadaic acid] | increase cofilin phosphorylation | promotes HIV latent infection | activates LIMK | – | – | – | –
3 | pertussis toxin | inhibits cofilin activation | inhibits | – | – | – | – | –
4 | COC(=O)c1ccc2nc(C3CCN(c4ncnc5[nH]cc(Cl)c45)CC3)[nH]c2c1 [R10015] | – | – | – | 20-40% | inhibits | dosage-dependent inhibition of cofilin phosphorylation | around 50%
